Test results reported in patent US20250129086A1, “COMPOUND FOR DEGRADING EGFR PROTEIN AND USE THEREOF” (TYK MEDICINES, INC., priority 2021, published 2025).

Tests used:
Type in all cases: cell-based, human
[1] = system: H1975 (EGFR L858R/T790M double mutation); experiment: Cell antiproliferative assay (CTG, 72 h), H1975; conditions: Table 2, H1975 cells
Description: (§1) Test Example 1 Cell Antiproliferative Assay
(§2) H1975: with EGFR: L858R/T790M double mutation; PC-9 with EGFR exon 19 deletion, HCC827 with exon 19 deletion mutation. CellCounting-Lite2.0, Trypsin EDTA, 37° C. CO2 incubator, cell counter, EnVision Serial No.1050454. II. Experimental preparation:
(§3) • (A) Trypsin EDTA was used to digest log-phase cells, medium was added to terminate the reaction, and a cell suspension was made by blowing and mixing with a pipette. • (B) Cell concentration was determined using Vi-cell, and a suspension of 15,000-25,000 cells per milliliter was made depending on the purpose of the experiment and the characteristics of the cells. • (C) After the cell suspension was prepared, it was gently mixed and 100 microliters per well was added so that the density of cells to be tested was 1500-2500 per well.
(§4) • (A) About 2 mg of compound was weighed, and the volume of DMSO required was calculated according to the formula: compound mass (mg)*compound purity (%)/compound molecular weight*1000 • (B) The inoculated cell culture plates were incubated in an incubator and the compounds with concentration gradient were added after about 24 hours. • (C)10 Mm of compound stock solution was diluted to […] with medium, and 50 Mm of compound solution was added sequentially to the second column of the deep-well plate, and […] of medium containing 0.5% DMSO was added to the third to eleventh columns. • (D) Gradient dilution: 125 μl of solution was pipetted from the second column and added to the third column, after mixing; another 125 μl of solution was pipetted from the third column and added to the fourth column, and the operation was repeated until the tenth column. • (E)25 μl of compound was pipetted from the deep-well plate into a 96-well culture plate using a multichannel pipette, and each compound was repeated three times on the 96-well plate. A maximum concentration of 10,000 nm with concentration gradient of 1:4 was eventually formed on the 96-well plate.
(§5) • (A)96-well plates were incubated in an incubator for 72 h. The effect of the compounds was observed under an inverted microscope. • (B)25 μl of CTG solution was added to each well, the plate was put on shaker for 10 minutes and the […] of each well was read.
(§6) The cell viability rate (% Cell Viability) was calculated using the following formula: • % Cell Viability=100%×(Lum_Sample-Lum_LC)/(Lum_HC-Lum_LC) • Lum_HC: Cell reading of 0.1% DMSO control • Lum_Sample: Cell reading with compound added • Lum_LC: Reading of Blank media • IC50 values were obtained by curve fitting with GraphPad Prism 8 software.

[2] = system: HCC827 (exon 19 deletion mutation); experiment: Cell antiproliferative assay (CTG, 72 h), HCC827; conditions: Table 2, HCC827 cells
Description: as §1, §2, §3, §4, §5, §6

[3] = system: PC-9 (EGFR exon 19 deletion); experiment: Cell antiproliferative assay (CTG, 72 h), PC-9; conditions: Table 2, PC-9 cells
Description: as §1, §2, §3, §4, §5, §6

Structure (SMILES) | IC50 ([1]; Homo sapiens, NCI-H1975, 72 h) | IC50 ([2]; Homo sapiens, HCC827, 72 h) | IC50 ([3]; Homo sapiens, PC-9, 72 h) | IC50 [1] | IC50 [2] | IC50 [3]
CNC(=O)c1ccccc1Nc1nc(Nc2cc(C)c(N3CCN(C(=O)CN4CCC(c5ccc(NC6CCC(=O)NC6=O)cc5F)CC4)CC3)cc2OC)ncc1Cl (stereo not drawn) [Compound T-367] | 10 to 100 nM | 10 to 100 nM | 10 to 100 nM | – | – | –
CNC(=O)c1ccccc1Nc1nc(Nc2cc(C)c(N3CCN(C(=O)CN4CCC(c5ccc(NC6CCC(=O)NC6=O)cc5)CC4)CC3C)cc2OC)ncc1Br (stereo not drawn) [Compound T-359] | 10 to 100 nM | 10 to 100 nM | 10 to 100 nM | – | – | –
COc1cc(N2CCN(c3ncc(Cl)c(Nc4ccccc4C(C)=O)n3)CC2)ncc1NC(=O)CN1CCC(c2ccc(NC3CCC(=O)NC3=O)cc2)CC1 (stereo not drawn) [Compound T-239] | ≥ 1000 nM | 100 to 1000 nM | ≥ 1000 nM | – | – | –
COc1cc(N2CCN(C(=O)CN3CCN(c4ccc5c(c4)CN(C4CCC(=O)NC4=O)C5=O)CC3)CC2)ccc1Nc1ncc(Cl)c(Nc2ccccc2C(C)=O)n1 (stereo not drawn) [Compound T-109] | 100 to 1000 nM | ≥ 1000 nM | ≥ 1000 nM | – | – | –
COc1cc(N2CCN(C(=O)CN3CCC(c4ccc(NC5CCC(=O)NC5=O)cc4)CC3)CC2)c(C)cc1Nc1ncc(C(F)(F)F)c(Nc2ccccc2C(C)=O)n1 (stereo not drawn) [Compound T-58] | 10 to 100 nM | 100 to 1000 nM | 100 to 1000 nM | – | – | –
O=C1CCC(Nc2ccc(C3CCN(CC(=O)N4CCN(c5ccc(Nc6ncc(Cl)c(Nc7ccccc7)n6)c(Cl)c5)CC4)CC3)cc2)C(=O)N1 (stereo not drawn) [Compound T-328] | 100 to 1000 nM | 100 to 1000 nM | 100 to 1000 nM | – | – | –
COc1cc(N2CCN(C(=O)CC3CCN(c4ccc5c(c4)C(=O)N(C4CCC(=O)NC4=O)C5=O)CC3)CC2)ccc1Nc1ncc(Cl)c(Nc2ccccc2C(C)=O)n1 (stereo not drawn) [Compound T-231] | 100 to 1000 nM | 10 to 100 nM | ≥ 1000 nM | – | – | –
COc1cc(N2CCN(C(=O)CN3CCC(c4ccc(Cn5ccc(=O)[nH]c5=O)cc4)CC3)CC2)ccc1Nc1ncc(Cl)c(Nc2ccccc2C(C)=O)n1 [Compound T-332] | 100 to 1000 nM | 100 to 1000 nM | 100 to 1000 nM | – | – | –
CNC(=O)c1ccccc1Nc1nc(Nc2cc(C)c(N3CCN(C(=O)CN4CCC(c5ccc(NC6CCC(=O)NC6=O)cc5)CC4)C(C)C3)cc2OC)ncc1Br (stereo not drawn) [Compound T-356] | 10 to 100 nM | 10 to 100 nM | 10 to 100 nM | – | – | –
COc1cc(N2CCN(C(=O)CN3CCC(c4ccc(CN5CCC(=O)NC5=O)cc4)CC3)CC2)ccc1Nc1ncc(Cl)c(Nc2ccccc2C(C)=O)n1 [Compound T-337] | 100 to 1000 nM | 100 to 1000 nM | 100 to 1000 nM | – | – | –
COc1cc(N2CCN(C(=O)CN3CCC(c4ccc(NC5CCC(=O)NC5=O)cc4)CC3)CC2)ccc1Nc1ncc(C(F)(F)F)c(Nc2ccc(F)cc2)n1 (stereo not drawn) [Compound T-52] | – | – | – | 10 to 100 nM | 100 to 1000 nM | ≥ 1000 nM
CNC(=O)c1ccccc1Nc1nc(Nc2ccc(N3CCN(C(=O)CC4(F)CCN(c5ccc(NC6CCC(=O)NC6=O)cc5)CC4)CC3)cc2OC)ncc1Cl (stereo not drawn) [Compound T-300] | 10 to 100 nM | 10 to 100 nM | 10 to 100 nM | – | – | –
COc1cc(N2CCN(C(=O)CN3CCC(c4ccc5c(N6CCC(=O)NC6=O)nn(C)c5c4)CC3)CC2)ccc1Nc1ncc(Cl)c(Nc2ccccc2)n1 [Compound T-14] | 10 to 100 nM | ≥ 1000 nM | ≥ 1000 nM | – | – | –
COc1cc(N2CCN(C(=O)CN3CCC(c4ccc(NC5CCC(=O)NC5=O)cc4)CC3)CC2)ccc1Nc1ncc(C(F)(F)F)c(Nc2ccc(F)cc2)n1 (stereo not drawn) [Compound T-51] | 10 to 100 nM | – | ≥ 1000 nM | – | ≥ 1000 nM | –
C=CC(=O)Nc1cc(Nc2ncc(C(F)(F)F)c(Nc3ccccc3)n2)c(OC)cc1N(C)CCN(C)C(=O)CN1CCC(c2ccc(NC3CCC(=O)NC3=O)cc2)CC1 (stereo not drawn) [Compound T-180] | 100 to 1000 nM | ≥ 1000 nM | ≥ 1000 nM | – | – | –
COc1cc(N2CCN(C(=O)CN3CCC(c4ccc(NC5CCC(=O)NC5=O)cc4)CC3)CC2)ccc1Nc1ncc(C(F)(F)F)c(Nc2ccccc2)n1 (stereo not drawn) [Compound T-02] | 10 to 100 nM | ≥ 1000 nM | 100 to 1000 nM | – | – | –

More lines, now with the values ahead:

IC50 ([1]; Homo sapiens, NCI-H1975, 72 h) | IC50 ([2]; Homo sapiens, HCC827, 72 h) | IC50 ([3]; Homo sapiens, PC-9, 72 h) | IC50 [1] | IC50 [2] | IC50 [3] | Structure (SMILES)
100 to 1000 nM | 100 to 1000 nM | ≥ 1000 nM | – | – | – | COc1cc(OC2CCN(C(=O)CN3CCC(c4ccc(NC5CCC(=O)NC5=O)cc4)CC3)CC2)ccc1Nc1ncc(Cl)c(Nc2ccccc2C(C)=O)n1 (stereo not drawn) [Compound T-214]
≤ 10 nM | 10 to 100 nM | 10 to 100 nM | – | – | – | COc1ccc(Nc2nc(Nc3ccc(N4CCN(C(=O)CN5CCC(c6ccc(NC7CCC(=O)NC7=O)cc6)CC5)CC4)cc3OC)ncc2Cl)c(C(C)=O)c1 (stereo not drawn) [Compound T-249]
10 to 100 nM | 10 to 100 nM | 10 to 100 nM | – | – | – | COc1cc(N2CCN(C(=O)CN3CCC(c4ccc(NC5CCC(=O)NC5=O)cc4)CC3)CC2)ccc1Nc1ncc(C(F)(F)F)c(Nc2ccccc2C(=O)NC2CCCC2)n1 (stereo not drawn) [Compound T-343]
10 to 100 nM | 100 to 1000 nM | 100 to 1000 nM | – | – | – | COc1cc(N2CCN(C(=O)CN3CCC(c4ccc(NC5CCC(=O)NC5=O)cc4)CC3)CC2)ccc1Nc1ncc(Cl)c(Nc2ccccc2C(=O)NC(C)C)n1 (stereo not drawn) [Compound T-259]
10 to 100 nM | 100 to 1000 nM | 100 to 1000 nM | – | – | – | COc1cc(N2CCN(C(=O)CN3CCC(c4ccc(NC5CCC(=O)NC5=O)cc4)CC3)CC2)ccc1Nc1ncc(Cl)c(Nc2ccccc2NC(C)=O)n1 (stereo not drawn) [Compound T-195]
100 to 1000 nM | ≥ 1000 nM | ≥ 1000 nM | – | – | – | COc1cc(N2CC(N(C)C(=O)CN3CCC(c4ccc(NC5CCC(=O)NC5=O)cc4)CC3)C2)ccc1Nc1ncc(Cl)c(Nc2ccccc2C(C)=O)n1 (stereo not drawn) [Compound T-170]
10 to 100 nM | 10 to 100 nM | 10 to 100 nM | – | – | – | COc1cc(N2CCN(C(=O)CN3CCC(c4ccc(NC5CCC(=O)NC5=O)cc4)CC3)CC2)c(C#N)cc1Nc1ncc(Cl)c(Nc2ccccc2C(C)=O)n1 (stereo not drawn) [Compound T-282]
100 to 1000 nM | 100 to 1000 nM | ≥ 1000 nM | – | – | – | COc1cc(N2CCN(C(=O)CN3CCC(c4ccc(NC5CCC(=O)NC5=O)cc4)CC3)CC2)ccc1Nc1ncc(Cl)c(Nc2ccccc2C#N)n1 (stereo not drawn) [Compound T-139]
10 to 100 nM | 100 to 1000 nM | 100 to 1000 nM | – | – | – | COc1cc(N2CCN(C(=O)CN3CCC(c4ccc(NC5CCC(=O)NC5=O)cc4)CC3)CC2)c(C)cc1Nc1ncc(Cl)c(Nc2ccccc2P(C)(C)=O)n1 (stereo not drawn) [Compound T-327]
10 to 100 nM | 10 to 100 nM | 100 to 1000 nM | – | – | – | COc1cc(N2CCN(C(=O)CN3CCC(c4ccc(NC5CCC(=O)NC5=O)cc4)CC3)CC2)ccc1Nc1ncc(Br)c(Nc2ccccc2C(=O)NC2CCCC2)n1 (stereo not drawn) [Compound T-342]
10 to 100 nM | 100 to 1000 nM | ≥ 1000 nM | – | – | – | COc1cc(N2CC[C@@H](N(C)C(=O)CN3CCC(c4ccc(NC5CCC(=O)NC5=O)cc4)CC3)C2)ccc1Nc1ncc(Cl)c(Nc2ccccc2C(C)=O)n1 (stereo partly drawn) [Compound T-171]
≤ 10 nM | 10 to 100 nM | 10 to 100 nM | – | – | – | COc1cc(N2CCN(C(=O)CN3CCC(c4ccc(NC5CCC(=O)NC5=O)cc4)CC3)CC2)ccc1Nc1ncc(Cl)c(Nc2ccc(Cl)cc2C(C)(C)O)n1 (stereo not drawn) [Compound T-243]
100 to 1000 nM | ≥ 1000 nM | ≥ 1000 nM | – | – | – | COc1cc(N2CCC[C@H](NC(=O)CN3CCC(c4ccc(NC5CCC(=O)NC5=O)cc4)CC3)C2)ccc1Nc1ncc(Cl)c(Nc2ccccc2C(C)=O)n1 (stereo partly drawn) [Compound T-166]
100 to 1000 nM | ≥ 1000 nM | ≥ 1000 nM | – | – | – | COc1cc(N2CC[C@H](NC(=O)CN3CCC(c4ccc(NC5CCC(=O)NC5=O)cc4)CC3)C2)ccc1Nc1ncc(Cl)c(Nc2ccccc2C(C)=O)n1 (stereo partly drawn) [Compound T-174]
